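Protocol summary: plate cells (96-well), add compound at 5 concentrations, incubate 48 h, interpolate endpoints linearly. GI50 marks 50% less growth.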 Calls of active or inactive are those of the source. No stated cut-off is given here; in the data, active = GI50 up to about 1.1 µM and inactive = higher.
How the values were obtained:
Experiment in all cases: inhibition of tumour cell growth, NCI panel, 48 h
786-0 = system: 786-0
BT-549 = system: BT-549
EKVX = system: EKVX
HCC 2998 = system: HCC 2998
HOP-62 = system: HOP-62
Hs-578T = system: Hs-578T
IGROV-1 = system: IGROV-1
KM12 = system: KM12
LOX IMVI = system: LOX IMVI
MDA-MB-231 = system: MDA-MB-231
MDA-MB-435 = system: MDA-MB-435
NCI-H23 = system: NCI-H23
OVCAR-4 = system: OVCAR-4
OVCAR-8 = system: OVCAR-8
RPMI-8226 = system: RPMI-8226
SF-268 = system: SF-268
SNB-75 = system: SNB-75
SW-620 = system: SW-620
T47D = system: T47D
UACC-257 = system: UACC-257

Compound	GI50 (786-0)	GI50 (BT-549)	GI50 (EKVX)	GI50 (HCC 2998)	GI50 (HOP-62)	GI50 (Hs-578T)	GI50 (IGROV-1)	GI50 (KM12)	GI50 (LOX IMVI)	GI50 (MDA-MB-231)	GI50 (MDA-MB-435)	GI50 (NCI-H23)	GI50 (OVCAR-4)	GI50 (OVCAR-8)	GI50 (RPMI-8226)	GI50 (SF-268)	GI50 (SNB-75)	GI50 (SW-620)	GI50 (T47D)	GI50 (UACC-257)
CC(=O)O[C@@H](c1nccn1Cc1ccccc1)[C@H]1OC(C)(C)O[C@@H]1[C@H]1COC(C)(C)O1	> 100 µM (inactive)	> 100 µM (inactive)	> 100 µM (inactive)	> 100 µM (inactive)	> 100 µM (inactive)	> 100 µM (inactive)	> 100 µM (inactive)	> 100 µM (inactive)	> 100 µM (inactive)	> 100 µM (inactive)	> 100 µM (inactive)	> 100 µM (inactive)	> 100 µM (inactive)	> 100 µM (inactive)	> 100 µM (inactive)	> 100 µM (inactive)	> 100 µM (inactive)	> 100 µM (inactive)	> 10 µM (inactive)	> 100 µM (inactive)
Cc1ccnc2c1c(=O)c1ccccc1n2C	53.6 µM (inactive)	27.1 µM (inactive)	30.8 µM (inactive)	39.9 µM (inactive)	40.7 µM (inactive)	25.3 µM (inactive)	31 µM (inactive)	50.7 µM (inactive)	37.6 µM (inactive)	31.8 µM (inactive)	42.9 µM (inactive)	49.1 µM (inactive)	35.6 µM (inactive)	34.4 µM (inactive)	36.7 µM (inactive)	28 µM (inactive)	17.6 µM (inactive)	35.5 µM (inactive)	38.9 µM (inactive)	37.1 µM (inactive)
O=C(Cn1c2ccc(Br)cc2c2nc3ccccc3nc21)NNC(=S)NC1CCCCC1	15.5 µM (inactive)	19.9 µM (inactive)	18.6 µM (inactive)	17.6 µM (inactive)	13.6 µM (inactive)	24.5 µM (inactive)	10.7 µM (inactive)	18.7 µM (inactive)	12.4 µM (inactive)	15.8 µM (inactive)	13.8 µM (inactive)	14.4 µM (inactive)	12.6 µM (inactive)	14.7 µM (inactive)	13.9 µM (inactive)	16.7 µM (inactive)	13.8 µM (inactive)	15.8 µM (inactive)	17.3 µM (inactive)	16.4 µM (inactive)
CC1(CCc2ccccc2)CC1(Br)Br (stereo not given)	21 µM (inactive)	> 100 µM (inactive)	19.1 µM (inactive)	40.9 µM (inactive)	51.9 µM (inactive)	42.9 µM (inactive)	92 µM (inactive)	35.7 µM (inactive)	20.5 µM (inactive)	73.1 µM (inactive)	25.5 µM (inactive)	43.9 µM (inactive)	30.3 µM (inactive)	23.6 µM (inactive)	18.6 µM (inactive)	41.4 µM (inactive)	50.6 µM (inactive)	> 100 µM (inactive)	27.2 µM (inactive)	25.8 µM (inactive)
COC(=O)C(CCC(=O)CCl)N1C(=O)c2ccccc2C1=O (stereo not given)	4.05 µM (inactive)	8.97 µM (inactive)	19.9 µM (inactive)	8.18 µM (inactive)	16.1 µM (inactive)	12.6 µM (inactive)	12.4 µM (inactive)	20.2 µM (inactive)	1.57 µM (inactive)	12.6 µM (inactive)	10.1 µM (inactive)	9.89 µM (inactive)	14.8 µM (inactive)	12.3 µM (inactive)	3.37 µM (inactive)	9.42 µM (inactive)	8.13 µM (inactive)	3.62 µM (inactive)	6.25 µM (inactive)	7.18 µM (inactive)
O=C(/C(=N\Nc1ccc([N+](=O)[O-])cc1[N+](=O)[O-])NC12CC3CC(CC(C3)C1)C2)C(Br)C(=O)c1ccccc1 (stereo not given)	3.21 µM (inactive)	4.44 µM (inactive)	3.56 µM (inactive)	3.98 µM (inactive)	2.74 µM (inactive)	4.67 µM (inactive)	6.67 µM (inactive)	2.78 µM (inactive)	2.43 µM (inactive)	2.27 µM (inactive)	3.52 µM (inactive)	3.33 µM (inactive)	2.77 µM (inactive)	3.48 µM (inactive)	1.84 µM (inactive)	5.05 µM (inactive)	2.48 µM (inactive)	0.766 µM (active)	2.69 µM (inactive)	1.88 µM (inactive)
Cc1ccc2c(c1)C(=O)c1ccc(C)nc1C2=O	85.9 µM (inactive)	25.6 µM (inactive)	40.7 µM (inactive)	31.3 µM (inactive)	37.8 µM (inactive)	> 100 µM (inactive)	27.7 µM (inactive)	27.9 µM (inactive)	21.9 µM (inactive)	3.98 µM (inactive)	19.3 µM (inactive)	18.9 µM (inactive)	27.7 µM (inactive)	46.9 µM (inactive)	43.3 µM (inactive)	34.9 µM (inactive)	42.4 µM (inactive)	27.9 µM (inactive)	62.7 µM (inactive)	24 µM (inactive)
Fc1cccc(F)c1C1SCc2nc3ccc(Cl)cc3n21 (stereo not given)	> 100 µM (inactive)	> 100 µM (inactive)	> 100 µM (inactive)	> 100 µM (inactive)	> 100 µM (inactive)	> 100 µM (inactive)	> 100 µM (inactive)	63 µM (inactive)	> 100 µM (inactive)	> 100 µM (inactive)	> 100 µM (inactive)	> 100 µM (inactive)	85.3 µM (inactive)	> 100 µM (inactive)	82.4 µM (inactive)	> 100 µM (inactive)	41.1 µM (inactive)	> 100 µM (inactive)	95.3 µM (inactive)	> 100 µM (inactive)
Cc1cc(CN(Cc2ccccc2)Cc2nc3ccccc3[nH]2)c(O)c(CN(Cc2nc3ccccc3[nH]2)Cc2nc3ccccc3[nH]2)c1	15 µM (inactive)	4.76 µM (inactive)	11.4 µM (inactive)	6.43 µM (inactive)	5.26 µM (inactive)	15.6 µM (inactive)	5.04 µM (inactive)	6.3 µM (inactive)	3.48 µM (inactive)	12.4 µM (inactive)	7.52 µM (inactive)	6.93 µM (inactive)	6.01 µM (inactive)	4.18 µM (inactive)	4.81 µM (inactive)	8.11 µM (inactive)	8.91 µM (inactive)	14.1 µM (inactive)	8.05 µM (inactive)	4.86 µM (inactive)
Brc1ccc2[nH]cc(-c3csc(-c4ccccn4)n3)c2c1	7.93 µM (inactive)	> 89.3 µM (inactive)	9.44 µM (inactive)	8.75 µM (inactive)	15.8 µM (inactive)	> 75.2 µM (inactive)	23 µM (inactive)	9.16 µM (inactive)	8.69 µM (inactive)	22.9 µM (inactive)	41.8 µM (inactive)	47.4 µM (inactive)	14.4 µM (inactive)	26.9 µM (inactive)	7.8 µM (inactive)	30.6 µM (inactive)	16.9 µM (inactive)	18.4 µM (inactive)	10.7 µM (inactive)	23 µM (inactive)
N#C/C(=C\c1ccc2[nH]ccc2c1)C(=O)NCCCCNC(=O)/C(C#N)=C/c1ccc2[nH]ccc2c1	> 31.6 µM (inactive)	> 10 µM (inactive)	> 31.6 µM (inactive)	> 31.6 µM (inactive)	> 31.6 µM (inactive)	> 10 µM (inactive)	> 31.6 µM (inactive)	> 31.6 µM (inactive)	> 31.6 µM (inactive)	> 10 µM (inactive)	> 10 µM (inactive)	> 31.6 µM (inactive)	> 31.6 µM (inactive)	> 31.6 µM (inactive)	> 10 µM (inactive)	> 31.6 µM (inactive)	> 31.6 µM (inactive)	> 31.6 µM (inactive)	> 10 µM (inactive)	> 31.6 µM (inactive)
O=C1CC(CC(O)C(O)C(O)CO)CC(=O)N1 (stereo not given)	> 100 µM (inactive)	> 100 µM (inactive)	> 100 µM (inactive)	> 100 µM (inactive)	> 100 µM (inactive)	> 100 µM (inactive)	> 100 µM (inactive)	> 100 µM (inactive)	> 100 µM (inactive)	> 100 µM (inactive)	> 100 µM (inactive)	> 100 µM (inactive)	> 100 µM (inactive)	> 100 µM (inactive)	> 100 µM (inactive)	> 100 µM (inactive)	> 100 µM (inactive)	> 100 µM (inactive)	> 100 µM (inactive)	> 100 µM (inactive)
COc1ccc2cc(CNCCCCCCNC(=O)Nc3cccc4ccccc34)ccc2c1	> 100 µM (inactive)	> 100 µM (inactive)	> 100 µM (inactive)	> 100 µM (inactive)	> 100 µM (inactive)	> 100 µM (inactive)	> 100 µM (inactive)	> 100 µM (inactive)	> 100 µM (inactive)	> 100 µM (inactive)	> 100 µM (inactive)	> 100 µM (inactive)	> 100 µM (inactive)	> 100 µM (inactive)	> 100 µM (inactive)	> 100 µM (inactive)	> 100 µM (inactive)	> 100 µM (inactive)	> 100 µM (inactive)	> 100 µM (inactive)
Cc1ccc(-n2c(Cn3nnc(-c4cccnc4)n3)nn(C3OC(COC(=O)c4ccccc4)C(OC(=O)c4ccccc4)C3OC(=O)c3ccccc3)c2=S)cc1 (stereo not given)	> 100 µM (inactive)	> 100 µM (inactive)	> 100 µM (inactive)	> 100 µM (inactive)	> 100 µM (inactive)	> 100 µM (inactive)	> 100 µM (inactive)	> 100 µM (inactive)	> 100 µM (inactive)	> 100 µM (inactive)	> 100 µM (inactive)	> 100 µM (inactive)	> 100 µM (inactive)	> 100 µM (inactive)	> 100 µM (inactive)	> 100 µM (inactive)	52.6 µM (inactive)	> 100 µM (inactive)	> 100 µM (inactive)	> 100 µM (inactive)

— ChEMBL document CHEMBL1201862, “PubChem BioAssay data set” (2004)
